Patent US20240132521A1, “COMPOUNDS AND METHODS FOR MODULATING HER2” (Iambic Therapeutics, Inc., priority 2022, published 2024)

Experiments:
Assay type in all cases: cell-based
BaF3_EGFRWT cells = BaF3_EGFRWT cells (Homo sapiens, UniProt P00533); test: Cell growth inhibition assay (CellTiterGlo), BaF3_EGFRWT; conditions: 3-day treatment, CellTiterGlo, read-out: Cell growth inhibition activity, EGFR WT
BaF3_HER2YVMA cells = BaF3_HER2YVMA cells (Homo sapiens, UniProt P04626, DUP772-775, cells depend on it); test: Cell growth inhibition assay (CellTiterGlo), BaF3_HER2YVMA; conditions: 3-day treatment, CellTiterGlo, read-out: Cell growth inhibition activity, HER2 - YVMA
BaF3_HER2WT cells = BaF3_HER2WT cells (Homo sapiens, UniProt P04626); test: Cell growth inhibition assay (CellTiterGlo), BaF3_HER2WT; conditions: 3-day treatment, CellTiterGlo, read-out: Cell growth inhibition activity, HER2 WT
BaF3_HER2WT cells, sequence (P04626 whole entry, change not shown): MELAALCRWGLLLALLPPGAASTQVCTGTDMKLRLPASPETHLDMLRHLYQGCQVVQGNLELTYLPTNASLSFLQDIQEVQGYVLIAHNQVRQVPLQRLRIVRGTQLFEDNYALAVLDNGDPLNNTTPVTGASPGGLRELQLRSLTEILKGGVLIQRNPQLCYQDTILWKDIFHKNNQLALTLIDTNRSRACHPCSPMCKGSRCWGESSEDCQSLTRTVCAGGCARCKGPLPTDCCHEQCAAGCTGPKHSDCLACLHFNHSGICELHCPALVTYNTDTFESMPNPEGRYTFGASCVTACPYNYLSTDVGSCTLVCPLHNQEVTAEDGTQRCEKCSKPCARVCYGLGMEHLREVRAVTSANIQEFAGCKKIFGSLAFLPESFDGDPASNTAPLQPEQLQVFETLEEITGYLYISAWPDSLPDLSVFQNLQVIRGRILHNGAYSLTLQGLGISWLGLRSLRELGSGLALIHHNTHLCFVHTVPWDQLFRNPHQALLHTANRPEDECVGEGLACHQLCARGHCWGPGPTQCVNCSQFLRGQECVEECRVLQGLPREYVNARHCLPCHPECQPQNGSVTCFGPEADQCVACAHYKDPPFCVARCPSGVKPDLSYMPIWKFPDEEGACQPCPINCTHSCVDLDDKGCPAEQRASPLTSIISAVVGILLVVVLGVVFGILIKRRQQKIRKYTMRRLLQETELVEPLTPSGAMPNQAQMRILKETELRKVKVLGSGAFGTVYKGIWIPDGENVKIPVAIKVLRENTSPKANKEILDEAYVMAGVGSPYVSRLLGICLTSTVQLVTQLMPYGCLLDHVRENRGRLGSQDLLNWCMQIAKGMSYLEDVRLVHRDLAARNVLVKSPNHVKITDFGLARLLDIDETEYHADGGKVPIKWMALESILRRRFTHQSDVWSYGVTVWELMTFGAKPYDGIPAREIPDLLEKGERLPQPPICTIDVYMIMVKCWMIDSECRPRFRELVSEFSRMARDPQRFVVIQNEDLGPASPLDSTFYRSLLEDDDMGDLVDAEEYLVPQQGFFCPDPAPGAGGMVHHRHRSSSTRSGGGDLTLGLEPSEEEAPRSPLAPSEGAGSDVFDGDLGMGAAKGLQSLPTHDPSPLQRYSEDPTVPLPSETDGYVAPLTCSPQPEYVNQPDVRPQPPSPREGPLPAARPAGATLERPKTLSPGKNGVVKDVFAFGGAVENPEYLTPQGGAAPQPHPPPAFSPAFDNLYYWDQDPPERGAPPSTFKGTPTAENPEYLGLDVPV

BaF3_EGFRWT cells, sequence (P00533 whole entry, change not shown): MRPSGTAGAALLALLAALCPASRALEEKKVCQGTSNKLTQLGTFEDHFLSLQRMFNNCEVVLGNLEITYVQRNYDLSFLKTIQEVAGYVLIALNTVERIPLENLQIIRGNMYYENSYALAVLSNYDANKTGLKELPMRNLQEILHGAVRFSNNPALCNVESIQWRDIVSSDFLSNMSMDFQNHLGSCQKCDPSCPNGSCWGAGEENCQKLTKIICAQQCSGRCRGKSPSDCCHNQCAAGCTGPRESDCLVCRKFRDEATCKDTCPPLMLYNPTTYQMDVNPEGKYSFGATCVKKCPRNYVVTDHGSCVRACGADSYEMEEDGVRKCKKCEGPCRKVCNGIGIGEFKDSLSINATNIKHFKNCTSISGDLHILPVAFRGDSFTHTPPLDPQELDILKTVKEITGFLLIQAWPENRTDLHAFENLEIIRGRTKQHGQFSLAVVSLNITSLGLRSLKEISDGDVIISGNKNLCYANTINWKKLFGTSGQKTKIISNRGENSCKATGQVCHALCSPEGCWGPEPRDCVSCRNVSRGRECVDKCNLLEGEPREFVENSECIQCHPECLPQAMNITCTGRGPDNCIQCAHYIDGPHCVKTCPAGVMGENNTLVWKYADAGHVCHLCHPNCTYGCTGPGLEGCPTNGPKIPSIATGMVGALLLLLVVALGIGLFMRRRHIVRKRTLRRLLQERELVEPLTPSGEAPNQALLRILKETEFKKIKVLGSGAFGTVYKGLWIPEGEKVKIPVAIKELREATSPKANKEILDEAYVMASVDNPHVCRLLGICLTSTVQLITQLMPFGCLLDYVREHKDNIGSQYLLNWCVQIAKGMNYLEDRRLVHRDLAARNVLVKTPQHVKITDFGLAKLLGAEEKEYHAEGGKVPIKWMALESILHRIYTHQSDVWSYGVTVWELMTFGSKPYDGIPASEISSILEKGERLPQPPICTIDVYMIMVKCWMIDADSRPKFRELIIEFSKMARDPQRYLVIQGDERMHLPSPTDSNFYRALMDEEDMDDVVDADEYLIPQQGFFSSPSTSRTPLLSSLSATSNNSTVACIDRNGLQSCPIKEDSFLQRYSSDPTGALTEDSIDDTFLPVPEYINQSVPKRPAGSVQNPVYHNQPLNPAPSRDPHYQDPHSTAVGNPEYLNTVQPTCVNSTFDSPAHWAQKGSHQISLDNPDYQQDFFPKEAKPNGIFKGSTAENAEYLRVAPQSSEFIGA
BaF3_HER2YVMA cells, sequence (P04626 with tags, fused parts or gaps DUP772-775): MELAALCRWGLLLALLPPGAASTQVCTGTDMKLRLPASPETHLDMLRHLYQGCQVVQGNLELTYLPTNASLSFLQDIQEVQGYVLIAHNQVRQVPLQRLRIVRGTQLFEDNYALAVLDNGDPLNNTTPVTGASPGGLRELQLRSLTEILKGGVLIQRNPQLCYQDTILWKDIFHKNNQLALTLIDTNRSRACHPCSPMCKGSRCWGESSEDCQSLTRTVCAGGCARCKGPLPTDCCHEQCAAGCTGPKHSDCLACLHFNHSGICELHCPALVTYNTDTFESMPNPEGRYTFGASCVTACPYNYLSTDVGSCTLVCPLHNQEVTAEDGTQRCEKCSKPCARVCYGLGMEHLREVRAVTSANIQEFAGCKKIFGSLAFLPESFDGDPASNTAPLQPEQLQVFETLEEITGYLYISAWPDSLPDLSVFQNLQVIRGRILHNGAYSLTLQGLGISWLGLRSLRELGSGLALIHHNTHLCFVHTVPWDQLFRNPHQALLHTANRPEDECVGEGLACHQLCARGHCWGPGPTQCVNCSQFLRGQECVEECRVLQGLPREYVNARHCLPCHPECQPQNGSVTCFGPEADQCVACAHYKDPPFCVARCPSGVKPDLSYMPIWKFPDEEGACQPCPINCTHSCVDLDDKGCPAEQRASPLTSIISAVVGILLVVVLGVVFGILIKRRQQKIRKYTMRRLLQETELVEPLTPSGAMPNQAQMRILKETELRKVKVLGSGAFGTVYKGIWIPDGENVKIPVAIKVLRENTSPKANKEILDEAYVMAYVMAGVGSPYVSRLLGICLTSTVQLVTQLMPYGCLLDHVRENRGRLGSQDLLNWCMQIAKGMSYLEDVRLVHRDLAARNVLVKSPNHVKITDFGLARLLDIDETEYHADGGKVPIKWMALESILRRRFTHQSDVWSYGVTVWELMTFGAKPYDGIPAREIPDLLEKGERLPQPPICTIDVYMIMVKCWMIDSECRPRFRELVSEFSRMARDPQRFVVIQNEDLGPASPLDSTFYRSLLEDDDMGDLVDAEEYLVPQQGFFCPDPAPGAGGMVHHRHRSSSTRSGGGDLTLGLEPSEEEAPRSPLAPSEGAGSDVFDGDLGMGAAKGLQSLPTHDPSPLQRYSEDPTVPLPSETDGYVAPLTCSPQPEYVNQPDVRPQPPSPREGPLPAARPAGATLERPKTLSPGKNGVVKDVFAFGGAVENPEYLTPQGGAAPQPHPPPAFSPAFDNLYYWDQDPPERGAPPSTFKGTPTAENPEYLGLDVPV

GI50 (BaF3_EGFRWT cells) [µM] | GI50 (BaF3_HER2YVMA cells) [µM] | GI50 (BaF3_HER2WT cells) [µM] | SMILES
1.5 to 5 | 0.5 to 1.5 | < 0.2 | C=CC(=O)NC1CCCN(c2ccn3ncnc(Nc4ccc(Oc5ccn6ncnc6c5)c(C)c4)c23)C1 (stereo not drawn) [Example 76, N-(1-(4-((4-([1,2,4]triazolo[1,5-a]pyridin-7-yloxy)-3-methylphenyl)amino)pyrrolo[2,1-f][1,2,4]triazin-5-yl)piperidin-3-yl)acrylamide]
1.5 to 5 | 0.2 to 0.5 | < 0.2 | C=CC(=O)NC1CCN(c2ccn3ncnc(Nc4ccc(Oc5ccn6ncnc6c5)c(C)c4)c23)C1 (stereo not drawn) [Example 79, N-(1-(4-((4-([1,2,4]triazolo[1,5-a]pyridin-7-yloxy)-3-methylphenyl)amino)pyrrolo[2,1-f][1,2,4]triazin-5-yl)pyrrolidin-3-yl)acrylamide]
1.5 to 5 | 1.5 to 5 | < 0.2 | Cc1cc(Nc2ncnn3ccc(N4CCCN(C(=O)/C=C/CN5CCOCC5)CC4)c23)ccc1Oc1ccn2ncnc2c1 [Example 80, (E)-1-(4-(4-((4-([1,2,4]triazolo[1,5-a]pyridin-7-yloxy)-3-methylphenyl)amino)pyrrolo[2,1-f][1,2,4]triazin-5-yl)-1,4-diazepan-1-yl)-4-morpholinobut-2-en-1-one]
1.5 to 5 | 0.2 to 0.5 | < 0.2 | Cc1cc(Nc2ncnn3ccc(C4CN(C(=O)/C=C/CN5CCC(F)(F)C5)C4)c23)ccc1Oc1ccn2ncnc2c1 [Example 84, (E)-1-(3-(4-((4-([1,2,4]triazolo[1,5-a]pyridin-7-yloxy)-3-methylphenyl)amino)pyrrolo[2,1-f][1,2,4]triazin-5-yl)azetidin-1-yl)-4-(3,3-difluoropyrrolidin-1-yl)but-2-en-1-one]
1.5 to 5 | < 0.2 | < 0.2 | Cc1cc(Nc2ncnn3ccc(C4CN(C(=O)/C=C/CN5CCC(F)(F)CC5)C4)c23)ccc1Oc1ccn2ncnc2c1 [Example 85, (E)-1-(3-(4-((4-([1,2,4]triazolo[1,5-a]pyridin-7-yloxy)-3-methylphenyl)amino)pyrrolo[2,1-f][1,2,4]triazin-5-yl)azetidin-1-yl)-4-(4,4-difluoropiperidin-1-yl)but-2-en-1-one]
1.5 to 5 | 1.5 to 5 | 1.5 to 5 | Cc1cc(Nc2ncnn3ccc(C4CN(C(=O)/C(C#N)=C/C(C)(C)C)C4)c23)ccc1Oc1ccn2ncnc2c1 [Example 89, (E)-2-(3-(4-((4-([1,2,4]triazolo[1,5-a]pyridin-7-yloxy)-3-methylphenyl)amino)pyrolo[2,1-f][1,2,4]triazin-5-yl)azetidine-1-carbonyl)-4,4-dimethylpent-2-enenitrile]
1.5 to 5 | < 0.2 | < 0.2 | COC1CN(C/C=C/C(=O)N2CCC(c3ccn4ncnc(Nc5ccc(Oc6ccn7ncnc7c6)c(C)c5)c34)CC2)C1 [Example 117, (E)-1-(4-(4-((4-([1,2,4]triazolo[1,5-a]217midazol-7-yloxy)-3-methylphenyl)amino)pyrrolo[2,1-f][1,2,4]triazin-5-yl)piperidin-1-yl)-4-(3-methoxyazetidin-1-yl)but-2-en-1-one]
0.5 to 1.5 | < 0.2 | < 0.2 | C=CC(=O)N1CCN(c2ccn3ncnc(Nc4ccc(Oc5ccc6c(c5)ncn6C)c(C)c4)c23)CC1 [Example 121, 1-(4-(4-((3-methyl-4-((1-methyl-1H-benzo[d]imidazol-5-yl)oxy)phenyl)amino)pyrrolo[2,1-f][1,2,4]triazin-5-yl)piperazin-1-yl)prop-2-en-1-one]
1.5 to 5 | < 0.2 | < 0.2 | Cc1cc(Nc2ncnn3ccc(C4CCN(C(=O)/C=C/CN5CCC6(COC6)C5)CC4)c23)ccc1Oc1ccc2c(c1)ncn2C [Example 129, (E)-1-(4-(4-((3-methyl-4-((1-methyl-1H-benzo[d]imidazol-5-yl)-oxy)phenyl)amino)-pyrrolo[2,1-f][1,2,4]triazin-5-yl)piperidin-1-yl)-4-(2-oxa-6-azaspiro[3.4]octan-6-yl)but-2-en-1-one]
1.5 to 5 | 1.5 to 5 | 0.2 to 0.5 | Cc1cc(Nc2ncnn3ccc(C4CN(C(=O)/C=C/CN(C)C)C4)c23)ccc1Oc1ccn2cnnc2c1 [Example 134, (E)-1-(3-(4-((4-([1,2,4]triazolo[4,3-a]pyridin-7-yloxy)-3-methylphenyl)amino)pyrrolo[2,1-f][1,2,4]triazin-5-yl)azetidin-1-yl)-4-(dimethylamino)but-2-en-1-one]
1.5 to 5 | 0.5 to 1.5 | 0.2 to 0.5 | C=CC(=O)N1C[C@H]2C[C@@H]1C[C@@H]2c1ccn2ncnc(Nc3ccc(Oc4ccn5ncnc5c4)c(C)c3)c12 [Example 141, 1-[(1S,4S,5S)-5-{4-[(3-methyl-4-{[1,2,4]triazolo[1,5-a]pyridin-7-yloxy}phenyl)amino]pyrrolo[2,1-f][1,2,4]triazin-5-yl}-2-azabicyclo[2.2.1]heptan-2-yl]prop-2-en-1-one]
1.5 to 5 | < 0.2 | < 0.2 | CNC/C=C/C(=O)N1CC(c2ccn3ncnc(Nc4ccc(Oc5ccn6ncnc6c5)c(C)c4)c23)C1 [Example 151, (E)-1-(3-(4-((4-([1,2,4]triazolo[1,5-a]pyridin-7-yloxy)-3-methylphenyl)amino)pyrrolo[2,1-f][1,2,4]triazin-5-yl)azetidin-1-yl)-4-(methylamino)but-2-en-1-one]

The next lines start with the molecule.

SMILES | GI50 (BaF3_EGFRWT cells) [µM] | GI50 (BaF3_HER2YVMA cells) [µM] | GI50 (BaF3_HER2WT cells) [µM]
C=CC(=O)N1CC(N(C)c2ccn3ncnc(Nc4ccc(Oc5ccn6ncnc6c5)c(C)c4)c23)C1 [Example 77, 1-(3-((4-((4-([1,2,4]triazolo[1,5-a]pyridin-7-yloxy)-3-methylphenyl)amino)pyrrolo[2,1-f][1,2,4]triazin-5-yl)(methyl)amino)azetidin-1-yl)prop-2-en-1-one] | 1.5 to 5 | 1.5 to 5 | 0.2 to 0.5
C=CC(=O)NC1CCN(c2ccn3ncnc(Nc4ccc(Oc5ccn6ncnc6c5)c(C)c4)c23)CC1 [Example 78, N-(1-(4-((4-([1,2,4]triazolo[1,5-a]pyridin-7-yloxy)-3-methylphenyl)amino)pyrrolo[2,1-f][1,2,4]triazin-5-yl)piperidin-4-yl)acrylamide] | 1.5 to 5 | 0.2 to 0.5 | < 0.2
Cc1cc(Nc2ncnn3ccc(N4CC(NC(=O)/C=C/CN5CCOCC5)C4)c23)ccc1Oc1ccn2ncnc2c1 [Example 81, (E)-N-(1-(4-((4-([1,2,4]triazolo[1,5-a]pyridin-7-yloxy)-3-methylphenyl)amino)pyrrolo[2,1-f][1,2,4]triazin-5-yl)azetidin-3-yl)-4-morpholinobut-2-enamide] | 1.5 to 5 | 1.5 to 5 | 0.2 to 0.5
Cc1cc(Nc2ncnn3ccc(C4CN(C(=O)/C(F)=C/C5CCCN5C)C4)c23)ccc1Oc1ccn2ncnc2c1 (stereo not drawn) [Example 92, (Z)-1-(3-(4-((4-([1,2,4]triazolo[1,5-a]pyridin-7-yloxy)-3-methylphenyl)amino)pyrrolo[2,1-f][1,2,4]triazin-5-yl)azetidin-1-yl)-2-fluoro-3-(1-methylpyrrolidin-2-yl)prop-2-en-1-one] | 1.5 to 5 | < 0.2 | < 0.2
COC1CCN(C/C=C/C(=O)N2CCC(c3ccn4ncnc(Nc5ccc(Oc6ccn7ncnc7c6)c(C)c5)c34)CC2)C1 (stereo not drawn) [Example 118, E-1-(4-(4-((4-([1,2,4]triazolo[1,5-a]217midazol-7-yloxy)-3-methylphenyl)amino)pyrrolo[2,1-f][1,2,4]triazin-5-yl)piperidin-1-yl)-4-(3-methoxypyrrolidin-1-yl)but-2-en-1-one] | 1.5 to 5 | < 0.2 | < 0.2
Cc1cc(Nc2ncnn3ccc(C4CCN(C(=O)/C=C/CN5CC6COCC6C5)CC4)c23)ccc1Oc1ccn2ncnc2c1 (stereo not drawn) [Example 119, E-1-(4-(4-((4-([1,2,4]triazolo[1,5-a]218midazol-7-yloxy)-3-methylphenyl)amino)pyrrolo[2,1-f][1,2,4]triazin-5-yl)piperidin-1-yl)-4-(tetrahydro-1H-furo[3,4-c]pyrrol-5(3H)-yl)but-2-en-1-one] | 1.5 to 5 | < 0.2 | < 0.2
Cc1cc(Nc2ncnn3ccc(C4CCN(C(=O)/C=C/CN5CCC6(COC6)C5)CC4)c23)ccc1Oc1ccn2ncnc2c1 [Example 120, E-1-(4-(4-((4-([1,2,4]triazolo[1,5-a]218midazol-7-yloxy)-3-methylphenyl)amino)pyrrolo[2,1-f][1,2,4]triazin-5-yl)piperidin-1-yl)-4-(2-oxa-6-azaspiro[3.4]octan-6-yl)but-2-en-1-one] | 1.5 to 5 | < 0.2 | < 0.2
Cc1cc(Nc2ncnn3ccc(C4CCN(C(=O)/C=C/CN(C)C)CC4)c23)ccc1Oc1ccc2c(c1)ncn2C [Example 133, (E)-4-(dimethylamino)-1-(4-(4-((3-methyl-4-((1-methyl-1H-benzo[d]234midazole-5-yl)oxy)phenyl)amino)pyrrolo[2,1-f][1,2,4]triazin-5-yl)piperidin-1-yl)but-2-en-1-one] | 1.5 to 5 | < 0.2 | < 0.2
Cc1cc(Nc2ncnn3ccc(C4CCN(C(=O)/C=C/C(=O)O)CC4)c23)ccc1Oc1ccn2ncnc2c1 [Example 142, (E)-4-(4-(4-((4-([1,2,4]triazolo[1,5-a]pyridin-7-yloxy)-3-methylphenyl)amino)pyrrolo[2,1-f][1,2,4]triazin-5-yl)piperidin-1-yl)-4-oxobut-2-enoic acid] | 1.5 to 5 | 1.5 to 5 | 1.5 to 5
Cc1cc(Nc2ncnn3ccc(C4CCN(C(=O)/C=C/CN)CC4)c23)ccc1Oc1ccn2ncnc2c1 [Example 150, (E)-1-(4-(4-((4-([1,2,4]triazolo[1,5-a]pyridin-7-yloxy)-3-methylphenyl)amino)pyrrolo[2,1-f][1,2,4]triazin-5-yl)piperidin-1-yl)-4-aminobut-2-en-1-one] | 1.5 to 5 | 1.5 to 5 | 0.5 to 1.5
